In this assay the target is Mtb PafA (Mycobacterium tuberculosis, UniProt P9WNU7). Briefly: fluorescent pupylation assay of PanB with 5-carboxyfluorescein-cys-Pup^E. In kind it is biochemical.

The values that follow come from publication PMC11642889, “Structure-Based Screening and Optimization of PafA Inhibitors with Potent Anti-Tuberculosis Activity” (International Journal of Molecular Sciences, 2024).

As a reminder, the IC50 is the midpoint of a concentration-inhibition curve. A high value points to lower potency.

Structures are written as SMILES.

Chain of Mtb PafA (P9WNU7 whole entry, looked up): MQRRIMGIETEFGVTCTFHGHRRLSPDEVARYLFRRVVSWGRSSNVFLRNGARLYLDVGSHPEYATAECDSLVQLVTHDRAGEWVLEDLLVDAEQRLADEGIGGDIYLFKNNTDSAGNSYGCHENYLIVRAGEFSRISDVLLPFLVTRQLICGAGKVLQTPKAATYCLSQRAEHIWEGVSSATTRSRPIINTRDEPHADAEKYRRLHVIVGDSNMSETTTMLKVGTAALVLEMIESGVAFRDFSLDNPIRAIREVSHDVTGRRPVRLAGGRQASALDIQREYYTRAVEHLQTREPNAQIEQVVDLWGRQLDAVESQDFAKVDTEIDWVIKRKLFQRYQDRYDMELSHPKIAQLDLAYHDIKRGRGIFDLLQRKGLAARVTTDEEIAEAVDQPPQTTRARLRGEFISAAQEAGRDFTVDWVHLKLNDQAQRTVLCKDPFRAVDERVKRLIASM

With `NS(=O)(=O)c1ccc(NC(=S)NCCc2ccc(F)cc2)cc1` [Pi-2-26], the IC50 came to 46.2 ± 7.96 nM.
